# Tests used:
# Assay in all cases: relative viability (nuclei count vs DMSO), 5 days (fraction); higher = more cells survive
# [1] = compound: Nc1ncn([C@H]2C[C@H](O)[C@@H](CO)O2)c(=O)n1 [Decitabine] + O=C(CCCCCCC(=O)Nc1ccccc1)NO [Vorinostat] (partner 1 µM)
# Method in brief: (§1)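 Lung cancer cell lines were pin-tool dosed in 1536-well plates on the day after seeding, with either a lone drug or a fixed anchor-drug dose plus five library-drug doses (not always all listed) in √10 steps. Nuclei were counted on 4× images after 5 days. Relative viability is the ratio of treated-well to vehicle-well nuclei counts, with each value a median of duplicate plates.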
# [2] = compound: O=C(C[C@H]1NCCC[C@@H]1O)Cn1cnc2cc(Br)c(Cl)cc2c1=O (racemic) [Halofuginone] + O=C(CCCCCCC(=O)Nc1ccccc1)NO [Vorinostat] (partner 1 µM)
# Method in brief: as §1
# [3] = compound: Nc1ncn([C@H]2C[C@H](O)[C@@H](CO)O2)c(=O)n1 [Decitabine] + COc1cccc2cc(-c3nc([C@H]4CC[C@H](C(=O)O)CC4)n4ncnc(N)c34)[nH]c12 [OSI-027] (partner 0.5 µM)
# Method in brief: as §1
# [4] = compound: O=C(C[C@H]1NCCC[C@@H]1O)Cn1cnc2cc(Br)c(Cl)cc2c1=O (racemic) [Halofuginone] + NC(=O)Nc1cc(-c2cccc(F)c2)sc1C(=O)N[C@H]1CCCNC1 [AZD7762] (partner 0.2 µM)
# Method in brief: as §1
Cell Line,relative viability ([1]; first compound 0.04 µM),relative viability ([1]; first compound 0.1265 µM),relative viability ([1]; first compound 0.4 µM),relative viability ([1]; first compound 1.265 µM),relative viability ([1]; first compound 4 µM),relative viability ([2]; first compound 0.001 µM),relative viability ([2]; first compound 0.003162 µM),relative viability ([2]; first compound 0.01 µM),relative viability ([2]; first compound 0.03162 µM),relative viability ([2]; first compound 0.1 µM),relative viability ([3]; first compound 0.04 µM),relative viability ([3]; first compound 0.1265 µM),relative viability ([3]; first compound 0.4 µM),relative viability ([3]; first compound 1.265 µM),relative viability ([3]; first compound 4 µM),relative viability ([4]; first compound 0.001 µM),relative viability ([4]; first compound 0.003162 µM),relative viability ([4]; first compound 0.01 µM),relative viability ([4]; first compound 0.03162 µM),relative viability ([4]; first compound 0.1 µM)
NCI-H2023,0.305,0.389,0.23,0.142,0.119,0.81,0.64,0.56,0.453,0.0822,0.275,0.29,0.26,0.159,0.15,,,,,
NCI-H1666,0.943,1.05,0.922,0.894,0.836,1.14,0.966,0.999,0.984,0.955,0.785,0.82,0.742,0.595,0.676,0.811,0.711,0.84,0.841,0.956
NCI-H1975,0.508,0.412,0.375,0.281,0.291,0.744,0.697,0.441,0.47,0.179,0.516,0.378,0.32,0.277,0.256,0.737,0.792,0.666,0.644,0.402
NCI-H2170,0.582,0.568,0.414,0.28,0.257,0.853,0.831,0.799,0.825,0.802,0.626,0.55,0.454,0.44,0.385,0.929,0.935,0.875,0.886,0.866
NCI-H1355,0.496,0.554,0.34,0.3,0.256,0.688,0.648,0.596,0.663,0.561,0.352,0.398,0.289,0.288,0.267,0.801,0.81,0.688,0.73,0.616
NCI-H1648,0.384,0.386,0.305,0.249,0.315,0.624,0.488,0.522,0.415,0.61,0.266,0.236,0.264,0.267,0.26,0.742,0.608,0.631,0.854,0.694
SK-MES-1,0.812,0.739,0.529,0.301,0.319,1.16,1.09,0.997,0.949,0.183,0.508,0.529,0.384,0.188,0.203,,,,,
EKVX,0.455,0.506,0.507,0.432,0.335,0.787,0.729,0.729,0.693,0.572,0.494,0.516,0.461,0.303,0.297,0.721,0.615,0.692,0.784,0.496
RERF-LC-KJ,0.573,0.651,0.286,0.528,0.494,0.8,0.675,0.605,0.718,0.604,0.529,0.559,,0.457,0.471,1.1,1.15,1.05,0.96,0.956
NCI-H1755,0.637,0.608,0.611,0.403,0.429,0.758,0.838,0.722,0.768,0.669,0.642,0.669,0.534,0.571,0.52,0.442,0.407,0.469,0.399,0.303
NCI-H661,0.806,0.602,0.54,0.467,0.485,0.773,0.803,0.682,0.549,0.491,0.55,0.628,0.474,0.374,0.346,,,,,
LOU-NH91,0.768,0.958,0.848,0.805,0.849,0.929,0.955,0.898,0.907,0.779,0.497,0.738,0.621,0.629,0.672,0.793,0.735,0.767,0.691,0.664
LXF-289,0.462,0.354,0.293,0.243,0.266,0.709,0.829,0.728,0.763,0.686,0.646,0.617,0.361,0.31,0.23,1.08,1.17,1.02,1.12,1.01
HCC-44,1.06,0.982,0.839,0.904,0.785,1.15,1.14,1.17,1.2,1.05,,0.739,0.232,0.364,0.49,1.06,1.01,1.02,1.03,1.05
HARA,0.507,0.377,0.345,0.213,0.214,0.587,0.675,0.512,0.697,0.51,0.251,0.257,0.164,0.112,0.111,0.279,0.506,0.391,0.305,0.304
201T,0.939,1.01,0.952,,0.884,1.01,0.971,0.964,0.909,0.776,0.72,0.681,0.62,0.464,0.403,0.634,0.634,0.589,0.711,0.8
LC-2-ad,0.642,0.635,0.608,0.365,0.406,0.695,0.706,0.69,0.696,0.686,0.738,0.705,0.663,0.457,0.479,0.841,0.878,0.831,0.885,0.576
NCI-H596,0.613,0.618,0.553,0.51,0.507,0.628,0.502,0.58,0.648,0.562,0.606,0.793,,0.581,0.477,1.19,1.18,1.1,0.95,0.722
NCI-H1437,0.522,0.542,0.444,0.373,0.421,0.965,0.886,0.772,0.747,0.501,0.717,0.732,0.495,0.382,0.3,1.11,1.08,1.07,1.17,1.11

Cell Line,relative viability ([1]; first compound 0.04 µM),relative viability ([1]; first compound 0.1265 µM),relative viability ([1]; first compound 0.4 µM),relative viability ([1]; first compound 1.265 µM),relative viability ([1]; first compound 4 µM),relative viability ([2]; first compound 0.001 µM),relative viability ([2]; first compound 0.003162 µM),relative viability ([2]; first compound 0.01 µM),relative viability ([2]; first compound 0.03162 µM),relative viability ([2]; first compound 0.1 µM),relative viability ([3]; first compound 0.04 µM),relative viability ([3]; first compound 0.1265 µM),relative viability ([3]; first compound 0.4 µM),relative viability ([3]; first compound 1.265 µM),relative viability ([3]; first compound 4 µM),relative viability ([4]; first compound 0.001 µM),relative viability ([4]; first compound 0.003162 µM),relative viability ([4]; first compound 0.01 µM),relative viability ([4]; first compound 0.03162 µM),relative viability ([4]; first compound 0.1 µM)
NCI-H727,1.08,0.973,0.664,0.835,1.1,1.23,1.05,1.06,1.35,1.21,0.485,0.65,0.477,0.57,0.426,0.777,0.551,0.72,0.677,0.634
PC-3 [JPC-3],,0.554,0.507,0.454,0.567,0.84,0.769,0.693,0.929,0.683,0.463,0.702,0.475,0.469,0.426,0.881,0.933,0.669,0.783,0.499
SW 1573,0.515,0.601,0.458,0.325,0.206,1.27,,0.775,0.601,0.167,0.469,0.558,0.572,0.273,0.21,,,,,
NCI-H2228,0.221,0.304,0.16,0.169,0.179,0.822,0.807,0.726,0.424,0.0673,0.418,0.431,0.205,0.103,0.207,,,,,
NCI-H1650,0.358,0.367,0.318,0.195,0.215,0.688,0.595,0.522,0.566,0.366,0.422,0.495,0.321,0.285,0.341,,,,,
NCI-H358,0.257,0.209,0.14,0.0806,0.0904,0.79,0.702,0.634,0.233,0.109,0.372,0.254,0.2,0.113,0.12,0.496,0.492,0.447,0.246,0.149
NCI-H1792,,,,,,,,,,,0.74,0.727,0.712,0.539,0.505,0.684,0.722,0.585,0.541,0.234
COR-L 105,0.768,0.721,0.61,0.585,0.439,1.04,0.872,0.896,0.774,0.719,0.425,0.581,0.65,0.526,0.585,,,,,
LU99A,0.469,0.513,0.523,0.453,0.397,0.482,0.578,0.51,0.479,0.453,0.307,0.291,0.319,0.255,0.293,0.323,0.347,0.384,0.327,0.346
H3255,,0.846,0.638,0.487,0.76,0.852,0.818,0.761,0.819,0.818,,0.478,0.435,0.5,0.535,1.05,0.777,0.871,0.844,0.876
NCI-H1734,0.698,0.685,0.48,0.297,0.306,0.891,0.9,0.838,0.753,0.607,0.506,0.554,0.578,0.368,0.266,0.558,0.619,0.52,0.576,0.269
NCI-H2009,0.474,0.446,0.356,0.285,0.335,0.86,0.703,0.76,0.703,0.462,0.518,0.437,0.336,0.296,0.25,,,,,
NCI-H1623,,,,,,,,,,,0.359,0.438,0.427,0.4,0.363,,,,,
NCI-H1703,,,,,,,,,,,,,,,,0.119,0.121,0.121,0.13,0.151
IA-LM,0.853,0.403,0.393,0.236,0.164,1.02,0.995,0.902,0.92,0.878,,,,,,,,,,
COR-L23,0.258,0.259,0.184,0.132,0.126,0.602,0.295,0.493,0.301,0.106,0.415,0.401,0.335,0.227,0.158,,,,,
SK-LU-1,0.611,0.65,0.443,0.453,0.433,0.835,0.818,0.839,0.787,0.368,0.296,0.29,0.216,0.253,0.227,,,,,
NCI-H1563,,,,,,,,,,,0.791,0.811,0.767,0.774,0.76,,,,,
NCI-H520,0.622,0.627,0.413,0.397,0.296,0.644,0.711,0.551,0.612,0.309,0.309,0.242,0.234,0.215,0.21,,,,,
